# Measurements taken from ChEMBL document CHEMBL1201862, “PubChem BioAssay data set” (2004).
#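 Assay format: 96-well plates, 48-hour exposure. Abbreviation: GI50, concentration required for 50% inhibition of growth.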 The source made the active and inactive calls. Rule as the data show it: active = GI50 up to about 1.1 µM and inactive = higher.
# Legend:
# Experiment in all cases: inhibition of tumour cell growth, NCI panel, 48 h
# SK-OV-3 = system: SK-OV-3
# U-251 = system: U-251
# HL-60 = system: HL-60
# OVCAR-8 = system: OVCAR-8
# UO-31 = system: UO-31
# KM-20L2 = system: KM-20L2
# ACHN = system: ACHN
# OVCAR-3 = system: OVCAR-3
# HOP-18 = system: HOP-18
# SNB-19 = system: SNB-19
# K562 = system: K562
# DMS-273 = system: DMS-273
# A549 = system: A549
# OVCAR-5 = system: OVCAR-5
# SK-MEL-2 = system: SK-MEL-2
# SK-MEL-5 = system: SK-MEL-5
# HOP-62 = system: HOP-62
# SNB-78 = system: SNB-78
# LOX IMVI = system: LOX IMVI
# HCT-116 = system: HCT-116
# HCT-15 = system: HCT-15
# KM12 = system: KM12
# RPMI-8226 = system: RPMI-8226
# M14 = system: M14
# 786-0 = system: 786-0
# NCI-H23 = system: NCI-H23
# HT-29 = system: HT-29
# SNB-75 = system: SNB-75
# OVCAR-4 = system: OVCAR-4
# MOLT-4 = system: MOLT-4
# COLO 205 = system: COLO 205
# NCI-H226 = system: NCI-H226
# TK-10 = system: TK-10
# DMS-114 = system: DMS-114
# HCC 2998 = system: HCC 2998
# UACC-257 = system: UACC-257
# SK-MEL-28 = system: SK-MEL-28
# Malme-3M = system: Malme-3M
# SW-620 = system: SW-620
# LXFL 529 = system: LXFL 529
# SF-295 = system: SF-295
# RXF 631 = system: RXF 631
# NCI-H460 = system: NCI-H460
# HOP-92 = system: HOP-92
# NCI-H522 = system: NCI-H522
# IGROV-1 = system: IGROV-1
# M19-MEL = system: M19-MEL
# SF-539 = system: SF-539
# CAKI-1 = system: CAKI-1
# DLD-1 = system: DLD-1
# SN12C = system: SN12C
# UACC-62 = system: UACC-62
# SF-268 = system: SF-268
# EKVX = system: EKVX
# A498 = system: A498
# CCRF-CEM = system: CCRF-CEM
# SR = system: SR
# RXF 393 = system: RXF 393
smiles,measurement,setting,value
Cc1cccc(C(C)(C)C)c1NC(=O)C(=O)Cc1nc2ccccc2s1,GI50,SK-OV-3,> 100 µM (inactive)
same,GI50,U-251,> 100 µM (inactive)
same,GI50,HL-60,> 100 µM (inactive)
same,GI50,OVCAR-8,> 100 µM (inactive)
same,GI50,UO-31,> 100 µM (inactive)
same,GI50,KM-20L2,> 100 µM (inactive)
same,GI50,ACHN,> 100 µM (inactive)
same,GI50,OVCAR-3,> 100 µM (inactive)
same,GI50,HOP-18,> 100 µM (inactive)
same,GI50,SNB-19,> 100 µM (inactive)
same,GI50,K562,> 100 µM (inactive)
same,GI50,DMS-273,> 100 µM (inactive)
same,GI50,A549,> 100 µM (inactive)
same,GI50,OVCAR-5,> 100 µM (inactive)
same,GI50,SK-MEL-2,> 100 µM (inactive)
same,GI50,SK-MEL-5,> 100 µM (inactive)
same,GI50,HOP-62,> 100 µM (inactive)
same,GI50,SNB-78,> 100 µM (inactive)
same,GI50,LOX IMVI,> 100 µM (inactive)
same,GI50,HCT-116,> 100 µM (inactive)
same,GI50,HCT-15,> 100 µM
same,GI50,KM12,> 100 µM (inactive)
same,GI50,RPMI-8226,> 100 µM (inactive)
same,GI50,M14,> 100 µM (inactive)
same,GI50,786-0,> 100 µM (inactive)
same,GI50,NCI-H23,> 100 µM (inactive)
same,GI50,HT-29,> 100 µM (inactive)
same,GI50,SNB-75,> 100 µM (inactive)
same,GI50,OVCAR-4,> 100 µM (inactive)
same,GI50,MOLT-4,> 100 µM (inactive)
same,GI50,COLO 205,> 100 µM (inactive)
same,GI50,NCI-H226,> 100 µM (inactive)
same,GI50,TK-10,> 100 µM (inactive)
same,GI50,DMS-114,> 100 µM (inactive)
same,GI50,HCC 2998,> 100 µM (inactive)
same,GI50,UACC-257,> 100 µM (inactive)
same,GI50,SK-MEL-28,> 100 µM (inactive)
same,GI50,Malme-3M,> 100 µM (inactive)
same,GI50,SW-620,> 100 µM (inactive)
same,GI50,LXFL 529,> 100 µM (inactive)
same,GI50,SF-295,> 100 µM (inactive)
same,GI50,RXF 631,> 100 µM (inactive)
same,GI50,NCI-H460,> 100 µM (inactive)
same,GI50,HOP-92,> 100 µM (inactive)
same,GI50,NCI-H522,> 100 µM (inactive)
same,GI50,IGROV-1,> 100 µM (inactive)
same,GI50,M19-MEL,> 100 µM (inactive)
same,GI50,SF-539,> 100 µM (inactive)
same,GI50,CAKI-1,> 100 µM (inactive)
same,GI50,DLD-1,> 100 µM (inactive)
same,GI50,SN12C,> 100 µM (inactive)
same,GI50,UACC-62,> 100 µM (inactive)
same,GI50,SF-268,> 100 µM (inactive)
same,GI50,EKVX,27.4 µM (inactive)
same,GI50,A498,> 100 µM (inactive)
COC(=O)C12Oc3ccc(-c4ccc5c(c4O)C(=O)C4=CCC(C)C(O)C4(C(=O)OC)O5)c(O)c3C(=O)C1=CCC(C)C2O (stereo not drawn),GI50,SK-OV-3,1.96 µM (inactive)
same,GI50,U-251,1.59 µM (inactive)
same,GI50,HL-60,0.935 µM (active)
same,GI50,OVCAR-8,0.964 µM (active)
same,GI50,UO-31,1.46 µM (inactive)
same,GI50,KM-20L2,1.44 µM (inactive)
same,GI50,ACHN,1.34 µM (inactive)
same,GI50,OVCAR-3,1.36 µM (inactive)
same,GI50,HOP-18,2.26 µM (inactive)
same,GI50,SNB-19,2.34 µM (inactive)
same,GI50,K562,3.77 µM (inactive)
same,GI50,DMS-273,1.62 µM (inactive)
same,GI50,A549,1.94 µM (inactive)
same,GI50,OVCAR-5,2.13 µM (inactive)
same,GI50,SK-MEL-2,1.41 µM (inactive)
same,GI50,SK-MEL-5,1.63 µM (inactive)
same,GI50,HOP-62,2.18 µM (inactive)
same,GI50,SNB-78,1.95 µM (inactive)
same,GI50,LOX IMVI,1.49 µM (inactive)
same,GI50,HCT-116,0.925 µM (active)
same,GI50,HCT-15,1.08 µM
same,GI50,KM12,1.47 µM (inactive)
same,GI50,RPMI-8226,0.897 µM (active)
same,GI50,M14,1.63 µM (inactive)
same,GI50,786-0,1.53 µM (inactive)
same,GI50,NCI-H23,1.37 µM (inactive)
same,GI50,HT-29,1.51 µM (inactive)
same,GI50,SNB-75,6.22 µM (inactive)
same,GI50,OVCAR-4,2.21 µM (inactive)
same,GI50,MOLT-4,5.66 µM (inactive)
same,GI50,COLO 205,1.32 µM (inactive)
same,GI50,NCI-H226,2.09 µM (inactive)
same,GI50,CCRF-CEM,0.733 µM (active)
same,GI50,TK-10,2.44 µM (inactive)
same,GI50,DMS-114,1.3 µM (inactive)
same,GI50,HCC 2998,1.31 µM (inactive)
same,GI50,UACC-257,1.82 µM (inactive)
same,GI50,SK-MEL-28,1.67 µM (inactive)
same,GI50,Malme-3M,1.53 µM (inactive)
same,GI50,SW-620,0.836 µM (active)
same,GI50,SR,0.843 µM (active)
same,GI50,LXFL 529,1.19 µM (inactive)
same,GI50,SF-295,2.02 µM (inactive)
same,GI50,RXF 393,1.63 µM (inactive)
same,GI50,RXF 631,2.13 µM (inactive)
same,GI50,NCI-H460,1.97 µM (inactive)
same,GI50,HOP-92,1.26 µM (inactive)
same,GI50,NCI-H522,1.01 µM (active)
same,GI50,IGROV-1,1.62 µM (inactive)
same,GI50,M19-MEL,1.48 µM (inactive)
same,GI50,SF-539,2.89 µM (inactive)
same,GI50,CAKI-1,2.07 µM (inactive)
same,GI50,DLD-1,0.798 µM (active)
same,GI50,SN12C,1.98 µM (inactive)
same,GI50,UACC-62,1.29 µM (inactive)
same,GI50,SF-268,1.1 µM (active)
same,GI50,EKVX,1.88 µM (inactive)
same,GI50,A498,2.19 µM (inactive)
